The results in this text go back to patent US11713338B2, “Cyclic peptides multimers targeting α-4-β-7 integrin” (priority 2016, dated 2023).

For the assay, the target named is T1, integrin α4β7 (RPMI8866 human cells adhering to MAdCAM-1) (Homo sapiens, UniProt P13612+P26010).
T1 construct: RMP18866 cells, which express integrin α4β7; host or cells: RPMI8866
T1 sequence (P13612 34-1032): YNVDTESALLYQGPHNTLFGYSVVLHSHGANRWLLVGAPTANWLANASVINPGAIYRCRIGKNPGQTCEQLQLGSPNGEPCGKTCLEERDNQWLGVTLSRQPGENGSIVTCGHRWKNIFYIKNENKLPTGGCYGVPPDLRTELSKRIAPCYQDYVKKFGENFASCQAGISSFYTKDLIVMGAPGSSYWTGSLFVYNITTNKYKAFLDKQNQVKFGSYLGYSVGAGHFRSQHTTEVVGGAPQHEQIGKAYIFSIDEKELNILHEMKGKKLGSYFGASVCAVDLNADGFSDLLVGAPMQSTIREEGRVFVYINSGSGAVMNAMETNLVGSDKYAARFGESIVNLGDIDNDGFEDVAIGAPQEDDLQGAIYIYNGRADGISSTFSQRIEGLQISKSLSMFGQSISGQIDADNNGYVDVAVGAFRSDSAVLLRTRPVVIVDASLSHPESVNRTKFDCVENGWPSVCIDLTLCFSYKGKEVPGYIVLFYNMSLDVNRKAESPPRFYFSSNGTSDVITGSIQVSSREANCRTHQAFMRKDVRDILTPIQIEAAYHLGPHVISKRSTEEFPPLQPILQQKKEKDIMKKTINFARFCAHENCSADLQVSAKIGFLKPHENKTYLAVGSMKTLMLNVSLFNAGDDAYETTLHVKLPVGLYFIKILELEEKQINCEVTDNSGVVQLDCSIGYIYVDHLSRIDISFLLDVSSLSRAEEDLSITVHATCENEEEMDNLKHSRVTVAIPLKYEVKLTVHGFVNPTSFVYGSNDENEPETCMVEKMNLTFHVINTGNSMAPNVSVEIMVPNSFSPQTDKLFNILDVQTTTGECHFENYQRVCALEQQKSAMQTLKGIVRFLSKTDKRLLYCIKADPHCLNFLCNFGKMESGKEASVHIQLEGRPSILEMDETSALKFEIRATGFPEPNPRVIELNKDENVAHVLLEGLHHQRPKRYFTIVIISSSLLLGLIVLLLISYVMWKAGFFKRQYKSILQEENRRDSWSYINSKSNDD
T1 sequence (P26010 20-798): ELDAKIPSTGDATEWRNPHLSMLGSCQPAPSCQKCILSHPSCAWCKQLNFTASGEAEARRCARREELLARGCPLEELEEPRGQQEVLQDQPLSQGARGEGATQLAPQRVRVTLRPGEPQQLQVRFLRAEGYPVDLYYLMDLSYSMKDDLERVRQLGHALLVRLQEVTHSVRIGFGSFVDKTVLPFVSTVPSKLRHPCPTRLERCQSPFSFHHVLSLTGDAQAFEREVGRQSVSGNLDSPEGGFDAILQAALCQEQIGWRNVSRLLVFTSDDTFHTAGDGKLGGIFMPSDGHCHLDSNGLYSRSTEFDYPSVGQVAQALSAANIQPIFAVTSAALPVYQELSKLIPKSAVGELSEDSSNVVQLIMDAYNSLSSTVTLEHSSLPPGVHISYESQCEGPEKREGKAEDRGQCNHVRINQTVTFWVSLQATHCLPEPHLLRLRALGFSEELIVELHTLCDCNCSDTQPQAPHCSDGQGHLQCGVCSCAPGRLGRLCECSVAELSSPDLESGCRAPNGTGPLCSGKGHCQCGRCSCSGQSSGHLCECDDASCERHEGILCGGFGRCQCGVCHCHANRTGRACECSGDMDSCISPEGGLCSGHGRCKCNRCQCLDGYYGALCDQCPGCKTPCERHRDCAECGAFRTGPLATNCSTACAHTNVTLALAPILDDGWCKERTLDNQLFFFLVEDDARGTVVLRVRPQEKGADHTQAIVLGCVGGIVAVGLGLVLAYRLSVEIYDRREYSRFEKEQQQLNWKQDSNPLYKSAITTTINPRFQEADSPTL
In words: Integrin α4β7-MAdCAM cell adhesion assay (RPMI8866 cells). In kind it is cell-based. Put shortly: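 Adhesion was read by calcein fluorescence. RPMI8866 cells were labelled at 10 million cells/ml with […] calcein (37° C., 30 min) and washed twice in PBS before reading. Dose-response values were corrected by subtracting cell-free control well fluorescence.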

The mark [1] stands for this setting: RPMI8866 cells adhering to MAdCAM, read-out: RPMI8866 Adhesion α4β7/MAdCAM IC50.

Read-outs that look alike come from different tables or passages of the source.

Turning to `CC(C)C[C@@H]1NC(=O)c2ccc(-c3ccc(N4CCN(C(=O)COCC(=O)N5CCN(c6ccc(-c7ccc8cc7CNC(=O)[C@@H]7CCCN7[C@H](C(=O)NC(C)(C)C)[C@H](C)NC(=O)[C@H]([C@@H](C)O)NC(=O)[C@H](CC(=O)O)NC(=O)[C@H](CC(C)C)NC8=O)cc6)CC5)CC4)cc3)c(c2)CNC(=O)[C@@H]2CCCN2[C@H](C(=O)NC(C)(C)C)[C@H](C)NC(=O)[C@H]([C@@H](C)O)NC(=O)[C@H](CC(=O)O)NC1=O` [Compound 390], the IC50 under setting [1] came out at 13 nM.
Still for that read-out and setting: with `CC(C)C[C@@H]1NC(=O)c2ccc(-c3ccc(N4CCN(C(=O)CCCCCCCCCCC(=O)N5CCN(c6ccc(-c7ccc8cc7CNC(=O)[C@@H]7CCCN7[C@H](C(=O)NC(C)(C)C)[C@H](C)NC(=O)[C@H]([C@@H](C)O)NC(=O)[C@H](CC(=O)O)NC(=O)[C@H](CC(C)C)NC8=O)cc6)CC5)CC4)cc3)c(c2)CNC(=O)[C@@H]2CCCN2[C@H](C(=O)NC(C)(C)C)[C@H](C)NC(=O)[C@H]([C@@H](C)O)NC(=O)[C@H](CC(=O)O)NC1=O` [Compound 392] the figure was 28 nM.
As to `CC(C)C[C@@H]1NC(=O)C[C@H](CCCCN)N(C)C(=O)[C@H](CCCCN)NC(=O)[C@@H]2CCCN2[C@H](C(=O)NC(C)(C)C)[C@H](C)NC(=O)[C@H]([C@@H](C)O)NC(=O)[C@H](CC(=O)O)NC1=O` [Compound 456], under “RPMI8866 cells, read-out: IC50 in the RPMI8866 cell adhesion assay”, the IC50 was found to be 199 nM.
As to `CC(C)C[C@@H]1NC(=O)c2ccc(-c3ccc(N4CCN(C(=O)[C@H]5CCC[C@H]5C(=O)N5CCN(c6ccc(-c7ccc8cc7CNC(=O)[C@@H]7CCCN7[C@H](C(=O)NC(C)(C)C)[C@H](C)NC(=O)[C@H]([C@@H](C)O)NC(=O)[C@H](CC(=O)O)NC(=O)[C@H](CC(C)C)NC8=O)cc6)CC5)CC4)cc3)c(c2)CNC(=O)[C@@H]2CCCN2[C@H](C(=O)NC(C)(C)C)[C@H](C)NC(=O)[C@H]([C@@H](C)O)NC(=O)[C@H](CC(=O)O)NC1=O` [Compound 458], the IC50 under setting [1] stood at 42 nM.
Take `CC(C)C[C@@H]1NC(=O)c2ccc(-c3ccc(N4CCN(C(=O)C56CC7CC(C5)CC(C(=O)N5CCN(c8ccc(-c9ccc%10cc9CNC(=O)[C@@H]9CCCN9[C@H](C(=O)NC(C)(C)C)[C@H](C)NC(=O)[C@H]([C@@H](C)O)NC(=O)[C@H](CC(=O)O)NC(=O)[C@H](CC(C)C)NC%10=O)cc8)CC5)(C7)C6)CC4)cc3)c(c2)CNC(=O)[C@@H]2CCCN2[C@H](C(=O)NC(C)(C)C)[C@H](C)NC(=O)[C@H]([C@@H](C)O)NC(=O)[C@H](CC(=O)O)NC1=O` [Compound 460]: the IC50 under setting [1] stood at 62 nM.
Regarding `CC(C)C[C@@H]1NC(=O)c2ccc(-c3ccc(N4CCN(C(=O)C5(C(=O)N6CCN(c7ccc(-c8ccc9cc8CNC(=O)[C@@H]8CCCN8[C@H](C(=O)NC(C)(C)C)[C@H](C)NC(=O)[C@H]([C@@H](C)O)NC(=O)[C@H](CC(=O)O)NC(=O)[C@H](CC(C)C)NC9=O)cc7)CC6)Cc6ccccc6C5)CC4)cc3)c(c2)CNC(=O)[C@@H]2CCCN2[C@H](C(=O)NC(C)(C)C)[C@H](C)NC(=O)[C@H]([C@@H](C)O)NC(=O)[C@H](CC(=O)O)NC1=O` [Compound 461], under setting [1], the IC50 came to 39 nM.
With `CC(C)C[C@@H]1NC(=O)c2ccc(-c3ccc(N4CCN(C(=O)c5ccc(-c6cccc(C(=O)N7CCN(c8ccc(-c9ccc%10cc9CNC(=O)[C@@H]9CCCN9[C@H](C(=O)NC(C)(C)C)[C@H](C)NC(=O)[C@H]([C@@H](C)O)NC(=O)[C@H](CC(=O)O)NC(=O)[C@H](CC(C)C)NC%10=O)cc8)CC7)n6)nc5)CC4)cc3)c(c2)CNC(=O)[C@@H]2CCCN2[C@H](C(=O)NC(C)(C)C)[C@H](C)NC(=O)[C@H]([C@@H](C)O)NC(=O)[C@H](CC(=O)O)NC1=O` [Compound 466], under setting [1], the IC50 was determined as 97 nM.
Same read-out and setting: the result for `CC(C)C[C@@H]1NC(=O)c2ccc(-c3ccc(N4CCN(C(=O)c5nccnc5C(=O)N5CCN(c6ccc(-c7ccc8cc7CNC(=O)[C@@H]7CCCN7[C@H](C(=O)NC(C)(C)C)[C@H](C)NC(=O)[C@H]([C@@H](C)O)NC(=O)[C@H](CC(=O)O)NC(=O)[C@H](CC(C)C)NC8=O)cc6)CC5)CC4)cc3)c(c2)CNC(=O)[C@@H]2CCCN2[C@H](C(=O)NC(C)(C)C)[C@H](C)NC(=O)[C@H]([C@@H](C)O)NC(=O)[C@H](CC(=O)O)NC1=O` [Compound 467] reads 43 nM; that for `CC(C)C[C@@H]1NC(=O)c2ccc(-c3ccc(N4CCN(c5ncc([N+](=O)[O-])c(N6CCN(c7ccc(-c8ccc9cc8CNC(=O)[C@@H]8CCCN8[C@H](C(=O)NC(C)(C)C)[C@H](C)NC(=O)[C@H]([C@@H](C)O)NC(=O)[C@H](CC(=O)O)NC(=O)[C@H](CC(C)C)NC9=O)cc7)CC6)n5)CC4)cc3)c(c2)CNC(=O)[C@@H]2CCCN2[C@H](C(=O)NC(C)(C)C)[C@H](C)NC(=O)[C@H]([C@@H](C)O)NC(=O)[C@H](CC(=O)O)NC1=O` [Compound 468], 13 nM.
Still for that read-out and setting: the result for `CC(C)C[C@@H]1NC(=O)c2ccc(-c3ccc(N4CCN(C(=O)c5cc(-c6ccccc6)c(C(=O)N6CCN(c7ccc(-c8ccc9cc8CNC(=O)[C@@H]8CCCN8[C@H](C(=O)NC(C)(C)C)[C@H](C)NC(=O)[C@H]([C@@H](C)O)NC(=O)[C@H](CC(=O)O)NC(=O)[C@H](CC(C)C)NC9=O)cc7)CC6)cc5-c5ccccc5)CC4)cc3)c(c2)CNC(=O)[C@@H]2CCCN2[C@H](C(=O)NC(C)(C)C)[C@H](C)NC(=O)[C@H]([C@@H](C)O)NC(=O)[C@H](CC(=O)O)NC1=O` [Compound 469] reads 5 nM.
As to `CC(C)C[C@@H]1NC(=O)c2ccc(-c3ccc(N4CCN(C(=O)c5ccc(C(=O)N6CCN(c7ccc(-c8ccc9cc8CNC(=O)[C@@H]8CCCN8[C@H](C(=O)NC(C)(C)C)[C@H](C)NC(=O)[C@H]([C@@H](C)O)NC(=O)[C@H](CC(=O)O)NC(=O)[C@H](CC(C)C)NC9=O)cc7)CC6)s5)CC4)cc3)c(c2)CNC(=O)[C@@H]2CCCN2[C@H](C(=O)NC(C)(C)C)[C@H](C)NC(=O)[C@H]([C@@H](C)O)NC(=O)[C@H](CC(=O)O)NC1=O` [Compound 470], under setting [1], the IC50 was found to be 17 nM.
For the compound `CC(C)C[C@@H]1NC(=O)c2ccc(-c3ccc(N4CCN(C(=O)c5ccc(-c6ccc(C(=O)N7CCN(c8ccc(-c9ccc%10cc9CNC(=O)[C@@H]9CCCN9[C@H](C(=O)NC(C)(C)C)[C@H](C)NC(=O)[C@H]([C@@H](C)O)NC(=O)[C@H](CC(=O)O)NC(=O)[C@H](CC(C)C)NC%10=O)cc8)CC7)cc6)cc5)CC4)cc3)c(c2)CNC(=O)[C@@H]2CCCN2[C@H](C(=O)NC(C)(C)C)[C@H](C)NC(=O)[C@H]([C@@H](C)O)NC(=O)[C@H](CC(=O)O)NC1=O` [Compound 474], the IC50 under setting [1] worked out at 14 nM.
Turning to `CC(C)C[C@@H]1NC(=O)c2ccc(-c3ccc(N4CCN(C(=O)c5cc(F)ccc5-c5ccc(F)cc5C(=O)N5CCN(c6ccc(-c7ccc8cc7CNC(=O)[C@@H]7CCCN7[C@H](C(=O)NC(C)(C)C)[C@H](C)NC(=O)[C@H]([C@@H](C)O)NC(=O)[C@H](CC(=O)O)NC(=O)[C@H](CC(C)C)NC8=O)cc6)CC5)CC4)cc3)c(c2)CNC(=O)[C@@H]2CCCN2[C@H](C(=O)NC(C)(C)C)[C@H](C)NC(=O)[C@H]([C@@H](C)O)NC(=O)[C@H](CC(=O)O)NC1=O` [Compound 475], the IC50 under setting [1] stood at 18 nM.
